Experimental data: BigSolDB 2.1

Question: Which solubility (mole fraction) (in ethanol, 293.15 K) does the source give for NC(N)=O here?
Answer: Its solubility (mole fraction) is 0.0395.

Question: What about the solubility (mole fraction) (in ethanol, 303.15 K) of the same molecule?
Answer: Its solubility (mole fraction) is 0.0548.

Question: What about the solubility (mole fraction) (in ethanol, 318.15 K) of the same molecule?
Answer: Its solubility (mole fraction) is 0.0874.

Question: What about the solubility (mole fraction) (in ethanol, 333.15 K) of the same molecule?
Answer: The solubility (mole fraction) was 0.127.

Question: And the solubility (mole fraction) (in ethanol, 343.15 K)?
Answer: The solubility (mole fraction) was 0.155.

Question: What about the solubility (mole fraction) (in isobutanol, 293.15 K) of the same molecule?
Answer: The solubility (mole fraction) was 0.017.

Question: What about the solubility (mole fraction) (in isobutanol, 303.15 K) of the same molecule?
Answer: Its solubility (mole fraction) is 0.0242.

Question: And the solubility (mole fraction) (in isobutanol, 318.15 K)?
Answer: The solubility (mole fraction) was 0.0302.

Question: And the solubility (mole fraction) (in isobutanol, 333.15 K)?
Answer: Its solubility (mole fraction) is 0.0469.

Question: And the solubility (mole fraction) (in isobutanol, 343.15 K)?
Answer: The solubility (mole fraction) was 0.0529.

Question: What about the solubility (mole fraction) (in isopentanol, 293.15 K) of the same molecule?
Answer: The solubility (mole fraction) was 0.0146.

Question: And the solubility (mole fraction) (in isopentanol, 303.15 K)?
Answer: Its solubility (mole fraction) is 0.0162.

Question: And the solubility (mole fraction) (in isopentanol, 318.15 K)?
Answer: Its solubility (mole fraction) is 0.026.

Question: And the solubility (mole fraction) (in isopentanol, 333.15 K)?
Answer: The solubility (mole fraction) was 0.0368.

Question: And the solubility (mole fraction) (in isopentanol, 343.15 K)?
Answer: The solubility (mole fraction) was 0.0451.

Question: And the solubility (mole fraction) (in isopropanol, 293.15 K)?
Answer: The solubility (mole fraction) was 0.0253.

Question: What about the solubility (mole fraction) (in isopropanol, 303.15 K) of the same molecule?
Answer: The solubility (mole fraction) was 0.0306.

Question: And the solubility (mole fraction) (in isopropanol, 318.15 K)?
Answer: The solubility (mole fraction) was 0.0425.

Question: What about the solubility (mole fraction) (in isopropanol, 333.15 K) of the same molecule?
Answer: Its solubility (mole fraction) is 0.058.

Question: And the solubility (mole fraction) (in isopropanol, 343.15 K)?
Answer: The solubility (mole fraction) was 0.0669.

Question: What about the solubility (mole fraction) (in methanol, 293.15 K) of the same molecule?
Answer: Its solubility (mole fraction) is 0.0845.

Question: And the solubility (mole fraction) (in methanol, 303.15 K)?
Answer: The solubility (mole fraction) was 0.104.

Question: And the solubility (mole fraction) (in methanol, 318.15 K)?
Answer: The solubility (mole fraction) was 0.165.

Question: What about the solubility (mole fraction) (in methanol, 333.15 K) of the same molecule?
Answer: Its solubility (mole fraction) is 0.225.

Question: What about the solubility (mole fraction) (in methanol, 343.15 K) of the same molecule?
Answer: Its solubility (mole fraction) is 0.266.

Question: And the solubility (mole fraction) (in n-butanol, 293.15 K)?
Answer: The solubility (mole fraction) was 0.0163.

Question: And the solubility (mole fraction) (in n-butanol, 303.15 K)?
Answer: Its solubility (mole fraction) is 0.0209.

Question: And the solubility (mole fraction) (in n-butanol, 318.15 K)?
Answer: The solubility (mole fraction) was 0.0292.

Question: And the solubility (mole fraction) (in n-butanol, 333.15 K)?
Answer: The solubility (mole fraction) was 0.0412.

Question: And the solubility (mole fraction) (in n-butanol, 343.15 K)?
Answer: The solubility (mole fraction) was 0.0504.

Question: And the solubility (mole fraction) (in n-pentanol, 293.15 K)?
Answer: Its solubility (mole fraction) is 0.0137.

Question: And the solubility (mole fraction) (in n-pentanol, 303.15 K)?
Answer: The solubility (mole fraction) was 0.0183.

Question: And the solubility (mole fraction) (in n-pentanol, 318.15 K)?
Answer: Its solubility (mole fraction) is 0.0241.

Question: And the solubility (mole fraction) (in n-pentanol, 333.15 K)?
Answer: Its solubility (mole fraction) is 0.0354.

Question: And the solubility (mole fraction) (in n-pentanol, 343.15 K)?
Answer: The solubility (mole fraction) was 0.0424.

Question: What about the solubility (mole fraction) (in n-propanol, 293.15 K) of the same molecule?
Answer: Its solubility (mole fraction) is 0.0246.

Question: And the solubility (mole fraction) (in n-propanol, 303.15 K)?
Answer: The solubility (mole fraction) was 0.0402.

Question: What about the solubility (mole fraction) (in n-propanol, 318.15 K) of the same molecule?
Answer: Its solubility (mole fraction) is 0.0384.

Question: And the solubility (mole fraction) (in n-propanol, 333.15 K)?
Answer: Its solubility (mole fraction) is 0.0722.

Question: What about the solubility (mole fraction) (in n-propanol, 343.15 K) of the same molecule?
Answer: Its solubility (mole fraction) is 0.0704.

Question: And the solubility (mole fraction) (in water, 293.15 K)?
Answer: The solubility (mole fraction) was 0.252.

Question: And the solubility (mole fraction) (in water, 303.15 K)?
Answer: The solubility (mole fraction) was 0.294.

Question: What about the solubility (mole fraction) (in water, 318.15 K) of the same molecule?
Answer: Its solubility (mole fraction) is 0.36.

Question: What about the solubility (mole fraction) (in water, 333.15 K) of the same molecule?
Answer: Its solubility (mole fraction) is 0.41.

Question: What about the solubility (mole fraction) (in water, 343.15 K) of the same molecule?
Answer: Its solubility (mole fraction) is 0.465.
